Patent publication US6602853B1, “Antigenic peptides reacting with anti-ovary antibodies” (Bio Merieux, priority 1996, dated 2003)
Bridges are numbered along the chain shown (N, C = ends). Where no end group is shown, it is not given here.

Assays:
[1] = test system: anti-ovary antibodies (AOA); assay: ELISA on 30 patient sera: correlation of serum reactivity toward crude ovarian antigen and toward each peptide (Example 2); format: binding, human; details: for correlation between reactivity of sera toward ovarian antigen and toward the antigen tested, in words / r value, correlation between reactivity of sera toward ovarian antigen and toward the peptide, IgA AOA / r value, correlation between reactivity of sera toward ovarian antigen and toward the peptide, IgG AOA / r value, correlation between reactivity of sera toward ovarian antigen and toward the peptide, IgM AOA: 30 sera from patients, ELISA; for correlation between reactivity of sera toward ovarian antigen and toward the antigen tested, in words: compared among antigens; for r value, correlation between reactivity of sera toward ovarian antigen and toward the peptide, IgA AOA: isotype IgA; for r value, correlation between reactivity of sera toward ovarian antigen and toward the peptide, IgG AOA: isotype IgG; for r value, correlation between reactivity of sera toward ovarian antigen and toward the peptide, IgM AOA: isotype IgM; for antigenic or immunogenic activity toward anti-ovary antibodies, in words: comparison among oligopeptides, Example 2
Method: (§1) The concentration of molecules to be adsorbed was determined by checkerboard experiments for each antigen. It is about 1 μg per well.
(§2) The binding of the antigens to the solid phase is performed in one night at +4° C. in the amount of 100 μl per well of the solution of antigen in carbonate-bicarbonate buffer. The plate is emptied. The sites of the solid phase still unoccupied are saturated on incubation for one hour at 37° C. with 200 μl per well of 5% powdered milk reconstituted in PBS.
The plate is emptied and washed 3 times in PBS. The samples are distributed in the amount of 100 μl per well. The plate is incubated for 45 minutes at 37° C.
(§3) The anti-isotypes are diluted in the same solution that was used for the dilution of the samples:
(§4) The plate is again emptied and washed 3 times in PBS. Then the anti-isotypes are distributed in the amount of 100 μl per well. The plate is incubated for 45 minutes at 37° C.
(§5) The developer solution is prepared on the spot, as follows for one plate:
(§6) After 3 further washings of the plate, 100 μl of developer solution are distributed into each well. After appearance of a yellow colour of greater or lesser intensity the reaction is stopped with 50 μl of H2SO4. The plate is read on the spectrophotometer at 492 nm using the Multiskan II reader.
Any ratio greater than 1 is considered as positive.
These four peptides obtained in lyophilized form were, after reconstitution and dialysis, used as antigens in a series of ELISA tests on 30 sera from patients.
Moreover, these same sera were tested against the crude ovarian antigens.
The immunoenzymatic technique used is that described in Example 1.

[2] = test system: anti-β-FSH monoclonal antibody 7G5A1; assay: Reaction with anti-β-FSH monoclonal antibody 7G5A1; format: binding; details: antibody only recognizing metrodine
anti-ovary antibodies = assay: Recognition by serums containing anti-ovary antibodies; format: binding
[3] = test system: anti-β-FSH monoclonal antibodies 22A3G7; 5H3E8; assay: Recognition by anti-β-FSH monoclonal antibodies 22A3G7 and 5H3E8; format: binding; details: antibodies immunoreactive with metrodine and ovarian extracts
[4] = test system: anti-ovary antibodies (AOA); assay: ELISA on 295 sera of IVF patients: correlation of reactivity toward total ovarian extract and toward peptide SEQ ID NO:1 (Example 3); format: binding, human; details: for r value, IgA AOA vs IgA SEQ ID No.1: crude ovarian antigen IgA vs peptide IgA
Method: as §1, §2
The samples to be tested are diluted in PBS to which 0.5% BSA and 0.2% Tween 20 have been added: dilution to 1/50 for the search for anti-ovary and anti-corpus luteum antibodies. The plate is emptied and washed 3 times in PBS. The samples are distributed in the amount of 100 μl per well. The plate is incubated for 45 minutes at 37° C.
as §3, §4, §5, §6
The results are firstly expressed as optical density (O.D.) then calculated as ratios relative to a control sample at the limit of positivity. Any ratio greater than 1 is considered as positive.
[…] and ninety-five sera were tested in duplicate, using the immunoenzymatic method described above, with, firstly, the total ovarian extract, and, secondly, the peptide SEQ ID NO: 1. For each antigen, the three immunoglobulin isotypes IgG, IgA and IgM were studied.
The patients included in the study were all scheduled for IVF. Their average age was 32.7±4.2 years. The average duration of the sterility was 4.8±2.8 years.
In 209 cases the serum was collected on the eighth day of the stimulation, and in 84 cases the serum was collected 15 days after the puncture.
The results of the correlation obtained between the reactivity of the sera toward the crude ovarian antigen and that of the same sera toward the peptide SEQ ID NO:1 tested, and expressed by an r value, are shown in Table II below: […]

| Molecule | correlation between reactivity of sera toward ovarian antigen and toward the antigen tested, in words [1] | r value, correlation between reactivity of sera toward ovarian antigen and toward the peptide, IgA AOA [1] | r value, correlation between reactivity of sera toward ovarian antigen and toward the peptide, IgG AOA [1] | r value, correlation between reactivity of sera toward ovarian antigen and toward the peptide, IgM AOA [1] | antigenic or immunogenic activity toward anti-ovary antibodies, in words [1] | reaction with anti-β-FSH monoclonal antibody 7G5A1 [2] | recognition by serums containing anti-ovary antibodies (anti-ovary antibodies) | recognition by anti-β-FSH monoclonal antibodies 22A3G7; 5H3E8 [3] | further results |
| --- | --- | --- | --- | --- | --- | --- | --- | --- | --- |
| SEQ ID No.1: linear sequence of 16 amino acids corresponding to the sequence of amino acids 78-93 of the β-chain of FSH (VATQCHCGKCDSDSTD; human FSH) | best correlation coefficients | 0.46 | 0.74 | 0.81 | identical activity | does not react | recognized | recognized | r value, IgA AOA vs IgA SEQ ID No.1 [4]: 0.11; r value, IgA AOA vs IgA SEQ ID No.1 ([4]; listed as SEQ ID NO:1): 0.10; r value, IgA AOA vs IgG SEQ ID No.1 ([4]; crude ovarian antigen IgA vs peptide IgG): 0.12; r value, IgA AOA vs IgM SEQ ID No.1 ([4]; crude ovarian antigen IgA vs peptide IgM): 0.01; r value, IgG AOA vs IgA SEQ ID No.1 ([4]; crude ovarian antigen IgG vs peptide IgA): 0.12; r value, IgG AOA vs IgG SEQ ID No.1 ([4]; crude ovarian antigen IgG vs peptide IgG): 0.18; r value, IgM AOA vs IgA SEQ ID No.1 ([4]; crude ovarian antigen IgM vs peptide IgA): 0.06; r value, IgM AOA vs IgG SEQ ID No.1 ([4]; crude ovarian antigen IgM vs peptide IgG): 0.10; r value, IgM AOA vs IgM SEQ ID No.1 ([4]; crude ovarian antigen IgM vs peptide IgM): 0.27 |
| SEQ ID No.2: sequence of 16 amino acids, bridged by a disulfide bond in position 5 and 7, amino acids 78-93 of the β-chain of FSH (VATQCHCGKCDSDSTD; disulfide 5-7) | – | 0.28 | 0.44 | 0.75 | weaker activity | – | – | – | – |
| SEQ ID No.3: sequence of 16 amino acids, bridged by a disulfide bond in position 5 and 10, amino acids 78-93 of the β-chain of FSH (VATQCHCGKCDSDSTD; disulfide 5-10) | – | 0.49 | 0.79 | 0.71 | weaker activity | – | – | – | – |
| SEQ ID No.4: sequence of 16 amino acids, bridged by a disulfide bond in position 7 and 10, amino acids 78-93 of the β-chain of FSH (VATQCHCGKCDSDSTD; disulfide 7-10) | – | 0.49 | 0.59 | 0.69 | weaker activity | – | – | – | – |
| TQCHCGKC (cysteine pairing not given here) [SEQ ID No.5] | same results as those obtained for the peptide SEQ ID No.1 | – | – | – | identical activity | does not react | recognized | recognized | – |
| β-chain of FSH: β-chain (β-subunit) of follicle stimulating hormone (protein) NSCELTNITIAIEKEECRFCISINTTWCAGYCYTRDLVYKDPARPKIQKTCTFKELVYETVRVPGCAHHADSLYTYPVATQCHCGKCDSDSTDCTVRGLGPSYCSFGEMKE | same results as those obtained for the peptide SEQ ID No.1 | – | – | – | – | – | – | – | – |
